# Measurements reported in patent US20260306500A1, “METHOD OF INHIBITING ADENOSINE TRIPHOSPHATE SECRETION, METHOD OF INHIBITING HEPATIC STELLATE CELL ACTIVATION, METHOD OF DEACTIVATING HEPATIC STELLATE CELL, METHOD OF TREATING HEPATIC FIBROSIS, METHOD OF TREATING NON-ALCOHOLIC STEATOHEPATITIS, AND METHOD OF TREATING PSORIASIS” (Kurume University, priority 2023, published 2026).
# Columns and labels:
# [1] = tested on: V-ATPase; test: Inhibitory effect on V-ATPase (data not shown)
# [2] = tested on: α-SMA in mouse liver; test: α-SMA Western blotting of liver tissue of TAA-treated mice; format: in vivo; conditions: imeglimin 200 mg/kg p.o. (FIG. 31)
# Method: In accordance with Example 15, immunostaining of α-SMA in liver sections and observation by fluorescence microscopy were performed for the normal control group, the TAA group, and the TAA+IMG group, and for a TAA+Clo group, which was treated in the same manner as the TAA+IMG group except that clodronate, instead of imeglimin, was administered at 30 mg/kg by blending it in the drinking water from 1 week after the start of TAA administration.
# Further, α-SMA was compared by Western blotting. Fresh mouse liver was homogenized in Western lysis buffer (20 mM Tris-HCl, pH 7.6, 150 mM NaCl, 2 mM EDTA, 0.5% NP-40) supplemented with protease and phosphatase inhibitor tablets (manufactured by Roche Applied Science), followed by centrifugation at 10,000×g at 4° C. for 5 minutes to obtain a supernatant. Protein content in the supernatant was quantified using a BCA Protein Assay Kit (manufactured by ThermoFisher Scientific). […] Thereafter, protein bands were visualized using an […] (ECL) Western blotting detection system (manufactured by GE Healthcare) and detected with an image analyzer LAS-4000 mini (manufactured by Fujifilm).
# [3] = tested on: LX-2 cells; test: ATP secretion from LX-2 cells; format: cell-based, human; conditions: 10 μM clodronate
# Method: Cells of the immortalized human hepatic stellate cell line LX-2 (manufactured by Merck) was cultured in Dulbecco's modified Eagle's medium (DMEM, 4500 mg/l Glucose, D5796, manufactured by Sigma-Aldrich) supplemented with inactivated 2% fetal bovine serum (FBS), 10 IU/ml penicillin, and 10 IU/ml streptomycin in a T25 or T75 flask at 37° C. in 5% CO2.
# LX-2 cells (2×10^6 cells per well) were seeded in a collagen-coated 6-well culture dish containing Dulbecco's modified Eagle's medium (manufactured by Sigma-Aldrich) supplemented with 10 IU/ml penicillin, […] 2% fetal bovine serum, and cultured in 5% CO2 at 37° C. After 3 days, the LX-2 cells were washed twice and preincubated in Krebs-Ringer buffer (10 mM HEPES-Tris, pH 7.4, 128 mM NaCl, 1.9 mM KCl, 1.2 mM KH2PO4, 1.3 mM MgSO4, 26 mM NaHCO3, 2.4 mM CaCl2, 10 mM glucose, 0.2% (w/v) bovine serum albumin) with or without 10 μM clodronate. The LX-2 cells were then stimulated with Krebs-Ringer buffer supplemented with ionomycin (manufactured by Cayman) regardless of whether clodronate was present or not. For the stimulation, 1 mM EGTA (manufactured by Dojindo) or 10 μM serotonin (5-HT, manufactured by Sigma-Aldrich) was used. The ATP concentration in the culture supernatant was measured in the same manner as in Example 6.
# For an siRNA experiment, a TriFECTa (trademark) RNAi Kit (manufactured by Integrated DNA Technologies) was used. A scramble RNA (scRNA) as a control siRNA, or a VNUT-specific siRNA, was incubated with Lipofectamine 3000 reagent (manufactured by Invitrogen) in OptiMEM reduced-serum medium (#31985070, manufactured by Gibco) at room temperature for 15 minutes, and then added directly to the cultured cells. The LX-2 cells as the transfection mixture were plated, and then cultured for 48 hours. The base sequences of VNUT siRNA forward and VNUT siRNA reverse, used for the above kit, are shown in SEQ ID NOs: 1 and 2, respectively. A positive control for an endogenous gene (#51-01-08-02) and a negative control (#51-01-14-03) were used.
# [4] = tested on: MCD diet-induced NASH model; conditions: administration of clodronate, Non Patent Literature 4; cited from earlier work
# [5] = tested on: VNUT; conditions: known; cited from earlier work
# [6] = tested on: ATP secretion; conditions: known; cited from earlier work
# [7] = molecular target: T1, V-ATPase (Bos taurus, UniProt P31404+P31408); test: Transmembrane potential generated (oxonol-V fluorescence quenching) in chromaffin granules; format: biochemical, cattle; conditions: role: inhibitor; 5 mM PEP, in presence of ATP, N=2
# T1 construct: Chromaffin granule membranes were prepared from adrenal glands collected from slaughtered cattle; from tissue; host or cells: cattle adrenal glands, chromaffin granule membranes (sucrose density gradient)
# T1 sequence (P31404 whole entry, looked up): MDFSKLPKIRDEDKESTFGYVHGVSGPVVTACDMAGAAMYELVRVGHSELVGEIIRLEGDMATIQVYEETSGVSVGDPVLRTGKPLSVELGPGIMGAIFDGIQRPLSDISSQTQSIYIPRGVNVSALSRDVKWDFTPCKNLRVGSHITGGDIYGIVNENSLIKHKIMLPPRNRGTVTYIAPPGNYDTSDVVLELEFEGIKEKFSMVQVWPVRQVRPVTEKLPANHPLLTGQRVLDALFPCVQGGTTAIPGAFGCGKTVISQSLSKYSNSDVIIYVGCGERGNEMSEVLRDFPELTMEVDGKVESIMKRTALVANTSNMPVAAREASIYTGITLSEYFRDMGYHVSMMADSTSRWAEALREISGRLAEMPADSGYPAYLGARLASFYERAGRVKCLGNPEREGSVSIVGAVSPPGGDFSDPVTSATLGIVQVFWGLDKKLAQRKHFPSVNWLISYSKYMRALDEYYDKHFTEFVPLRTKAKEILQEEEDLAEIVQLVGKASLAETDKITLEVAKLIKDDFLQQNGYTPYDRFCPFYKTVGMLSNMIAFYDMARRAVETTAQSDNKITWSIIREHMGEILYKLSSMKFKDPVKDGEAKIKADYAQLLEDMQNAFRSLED
# T1 sequence (P31408 whole entry, looked up): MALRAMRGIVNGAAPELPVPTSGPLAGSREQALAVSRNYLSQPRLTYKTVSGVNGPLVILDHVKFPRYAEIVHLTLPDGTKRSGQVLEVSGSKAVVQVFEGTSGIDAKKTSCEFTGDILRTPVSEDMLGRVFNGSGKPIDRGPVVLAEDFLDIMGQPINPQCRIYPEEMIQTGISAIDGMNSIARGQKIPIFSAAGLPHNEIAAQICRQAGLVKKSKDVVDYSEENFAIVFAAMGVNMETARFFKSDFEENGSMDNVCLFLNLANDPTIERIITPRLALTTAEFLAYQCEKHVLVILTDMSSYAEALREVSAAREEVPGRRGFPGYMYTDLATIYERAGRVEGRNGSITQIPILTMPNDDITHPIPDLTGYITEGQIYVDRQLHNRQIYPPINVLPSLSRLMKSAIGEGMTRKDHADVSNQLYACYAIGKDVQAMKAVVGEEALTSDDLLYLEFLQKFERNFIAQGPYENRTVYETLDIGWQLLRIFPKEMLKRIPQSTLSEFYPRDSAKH
# Method: Chromaffin granule membranes were prepared from adrenal glands collected from slaughtered cattle according to Reference A (Nathan Nelson et al., 1988, Chromaffin Granule Proton Pump, Methods in Enzymology, 157, 619-633). Chromaffin granule membranes prepared by sucrose density gradient centrifugation were suspended in 2 ml of SME buffer (20 mM MOPS-tris (pH 7.0), 0.3 M sucrose, 5 mM EDTA, 10 μg/ml leupeptin, and 10 μg/ml pepstatin)+25% glycerol, and the resulting suspension was aliquoted and stored at −80° C. Under these conditions, the ATP transport activity, the V-ATPase activity, and the catecholamine transport activity remain fully active for at least one year.
# ATP-dependent proton transport by V-ATPase was measured according to Reference B. Proton transport activity was measured using a spectrofluorometer at excitation wavelength of 492 nm and a fluorescence wavelength 540 nm, wherein fluorescence quenching of acridine orange was used as an index (N=2). The transmembrane potential generated was measured using a spectrofluorometer at an excitation wavelength of 580 nm and a fluorescence wavelength of 630 nm, wherein fluorescence quenching of oxonol-V was used as an index (N=2). […]
smiles,measurement,setting,value
C[C@@H]1N=C(N)NC(N(C)C)=N1 [imeglimin],inhibitory effect on V-ATPase,[1],neither imeglimin nor metformin exhibited a strong inhibitory effect
same,TAA-induced increase in α-SMA (Western blotting),[2],markedly suppressed
O=P(O)(O)C(Cl)(Cl)P(=O)(O)O [clodronate],5-HT-promoted ATP secretion,"[3]; 10 μM 5-HT, N=6 (FIG. 25)",strongly inhibited
same,ATP exocytosis,"[3]; ionomycin, N=6 (FIG. 24)",inhibited
same,"NASH activity score, inflammatory cell infiltration, and hepatic fibrosis",[4],improves
same,VNUT inhibition,[5],known to be a VNUT inhibitor
same,ATP secretion inhibitory action,[6],known to have an ATP secretion inhibitory action
"C=C(OP(=O)(O)O)C(=O)O [PEP, phosphoenolpyruvic acid]",change in oxonol-V quenching level,[7],did not change the level of quenching
